Laboratory results reported in PubChem BioAssay (NCI).
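Method: 48-hour compound exposure of cells in 96-well plates, five concentrations, linear interpolation of endpoints. Abbreviation: GI50, concentration required for 50% inhibition of growth. TGI is the concentration that stops growth completely.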

What was measured:
Assay in all cases: growth of human tumour cells (NCI), 48 h
RXF 393 renal = test system: RXF 393 renal
KM12 colon = test system: KM12 colon
EKVX NSCLC = test system: EKVX NSCLC
MDA-MB-435 = test system: MDA-MB-435
ACHN renal = test system: ACHN renal
OVCAR-8 ovarian = test system: OVCAR-8 ovarian
SNB-75 CNS = test system: SNB-75 CNS
HCT-15 colon = test system: HCT-15 colon
CCRF-CEM leukemia = test system: CCRF-CEM leukemia
RPMI-8226 leukemia = test system: RPMI-8226 leukemia
UACC-257 melanoma = test system: UACC-257 melanoma
HT29 colon = test system: HT29 colon
NCI-H460 lung = test system: NCI-H460 lung
TK-10 renal = test system: TK-10 renal
SR leukemia = test system: SR leukemia
SK-OV-3 ovarian = test system: SK-OV-3 ovarian
786-0 renal = test system: 786-0 renal
NCI-H23 lung = test system: NCI-H23 lung
A498 renal = test system: A498 renal
SF-539 CNS = test system: SF-539 CNS
A549 NSCLC = test system: A549 NSCLC
LOX IMVI melanoma = test system: LOX IMVI melanoma
HCT-116 colon = test system: HCT-116 colon
HS 578T breast = test system: HS 578T breast
K-562 leukemia = test system: K-562 leukemia
SF-295 CNS = test system: SF-295 CNS
OVCAR-4 ovarian = test system: OVCAR-4 ovarian
IGROV1 ovarian = test system: IGROV1 ovarian
NCI/ADR-RES ovarian = test system: NCI/ADR-RES ovarian
SNB-19 CNS = test system: SNB-19 CNS
U251 CNS = test system: U251 CNS
T-47D breast = test system: T-47D breast
BT-549 breast = test system: BT-549 breast
HCC-2998 colon = test system: HCC-2998 colon
SK-MEL-28 melanoma = test system: SK-MEL-28 melanoma
OVCAR-3 ovarian = test system: OVCAR-3 ovarian
MALME-3M melanoma = test system: MALME-3M melanoma
UACC-62 melanoma = test system: UACC-62 melanoma
HOP-62 NSCLC = test system: HOP-62 NSCLC
NCI-H226 lung = test system: NCI-H226 lung
HOP-92 NSCLC = test system: HOP-92 NSCLC
SK-MEL-2 melanoma = test system: SK-MEL-2 melanoma
SW-620 colon = test system: SW-620 colon
CAKI-1 renal = test system: CAKI-1 renal
NCI-H522 lung = test system: NCI-H522 lung
MCF7 breast = test system: MCF7 breast
MDA-MB-231 breast = test system: MDA-MB-231 breast
SF-268 CNS = test system: SF-268 CNS
DU-145 prostate = test system: DU-145 prostate
COLO 205 colon = test system: COLO 205 colon
OVCAR-5 ovarian = test system: OVCAR-5 ovarian
M14 melanoma = test system: M14 melanoma
HL-60(TB) leukemia = test system: HL-60(TB) leukemia
SK-MEL-5 melanoma = test system: SK-MEL-5 melanoma
MOLT-4 leukemia = test system: MOLT-4 leukemia
SN12C renal = test system: SN12C renal
PC-3 prostate = test system: PC-3 prostate
UO-31 renal = test system: UO-31 renal

COc1ccc(-c2nc3sccn3c2-c2ccnc(NCCCNS(=O)(=O)c3ccc(F)cc3)n2)cc1
GI50 (RXF 393 renal): 3.13 µM
TGI (RXF 393 renal): 13.1 µM
GI50 (KM12 colon): 2.57 µM
TGI (KM12 colon): 9.24 µM
GI50 (EKVX NSCLC): 3.12 µM
TGI (EKVX NSCLC): > 100 µM
GI50 (MDA-MB-435): 2 µM
TGI (MDA-MB-435): 6.51 µM
GI50 (ACHN renal): 1.99 µM
TGI (ACHN renal): 7.73 µM
GI50 (OVCAR-8 ovarian): 1.57 µM
TGI (OVCAR-8 ovarian): > 100 µM
GI50 (SNB-75 CNS): 2.25 µM
TGI (SNB-75 CNS): 6.04 µM
GI50 (HCT-15 colon): 2.4 µM
TGI (HCT-15 colon): 10.6 µM
GI50 (CCRF-CEM leukemia): 1.52 µM
TGI (CCRF-CEM leukemia): > 100 µM
GI50 (RPMI-8226 leukemia): 1.6 µM
TGI (RPMI-8226 leukemia): 5.37 µM
GI50 (UACC-257 melanoma): 2.85 µM
TGI (UACC-257 melanoma): > 100 µM
GI50 (HT29 colon): 2.16 µM
TGI (HT29 colon): > 100 µM
GI50 (NCI-H460 lung): 2.78 µM
TGI (NCI-H460 lung): 37.6 µM
GI50 (TK-10 renal): 3.92 µM
TGI (TK-10 renal): > 100 µM
GI50 (SR leukemia): 3.17 µM
TGI (SR leukemia): > 100 µM
GI50 (SK-OV-3 ovarian): 3.93 µM
TGI (SK-OV-3 ovarian): > 100 µM
GI50 (786-0 renal): 5.13 µM
TGI (786-0 renal): > 100 µM
GI50 (NCI-H23 lung): 2.11 µM
TGI (NCI-H23 lung): 5.5 µM
GI50 (A498 renal): 2.6 µM
TGI (A498 renal): > 100 µM
GI50 (SF-539 CNS): 2.91 µM
TGI (SF-539 CNS): 8.67 µM
GI50 (A549 NSCLC): 2.94 µM
TGI (A549 NSCLC): > 100 µM
GI50 (LOX IMVI melanoma): 1.91 µM
TGI (LOX IMVI melanoma): 5.82 µM
GI50 (HCT-116 colon): 3.19 µM
TGI (HCT-116 colon): 24.4 µM
GI50 (HS 578T breast): 3.22 µM
TGI (HS 578T breast): 9.03 µM
GI50 (K-562 leukemia): 1.43 µM
TGI (K-562 leukemia): > 100 µM
GI50 (SF-295 CNS): 2.8 µM
TGI (SF-295 CNS): 8.55 µM
GI50 (OVCAR-4 ovarian): 2.49 µM
TGI (OVCAR-4 ovarian): 8.4 µM
GI50 (IGROV1 ovarian): 3.27 µM
TGI (IGROV1 ovarian): > 100 µM
GI50 (NCI/ADR-RES ovarian): 1.98 µM
TGI (NCI/ADR-RES ovarian): 6.16 µM
GI50 (SNB-19 CNS): 4.43 µM
TGI (SNB-19 CNS): > 100 µM
GI50 (U251 CNS): 3.7 µM
TGI (U251 CNS): > 100 µM
GI50 (T-47D breast): 0.866 µM
TGI (T-47D breast): 4.87 µM
GI50 (BT-549 breast): 2.19 µM
TGI (BT-549 breast): 8.27 µM
GI50 (HCC-2998 colon): 5.11 µM
TGI (HCC-2998 colon): 57.2 µM
GI50 (SK-MEL-28 melanoma): 2.29 µM
TGI (SK-MEL-28 melanoma): 6.86 µM
GI50 (OVCAR-3 ovarian): 2.96 µM
TGI (OVCAR-3 ovarian): 48.7 µM
GI50 (MALME-3M melanoma): 2.6 µM
TGI (MALME-3M melanoma): 7.86 µM
GI50 (UACC-62 melanoma): 0.752 µM
TGI (UACC-62 melanoma): 2.73 µM
GI50 (HOP-62 NSCLC): 4.15 µM
TGI (HOP-62 NSCLC): 23.7 µM
GI50 (NCI-H226 lung): 1.59 µM
TGI (NCI-H226 lung): 5.28 µM
GI50 (HOP-92 NSCLC): 1.75 µM
TGI (HOP-92 NSCLC): > 100 µM
GI50 (SK-MEL-2 melanoma): 2.32 µM
TGI (SK-MEL-2 melanoma): 6.75 µM
GI50 (SW-620 colon): 3.87 µM
TGI (SW-620 colon): 44.4 µM
GI50 (CAKI-1 renal): 2.5 µM
TGI (CAKI-1 renal): 7.29 µM
GI50 (NCI-H522 lung): 1.41 µM
TGI (NCI-H522 lung): 6.34 µM
GI50 (MCF7 breast): 2.48 µM
TGI (MCF7 breast): 8.66 µM
GI50 (MDA-MB-231 breast): 4.18 µM
TGI (MDA-MB-231 breast): > 100 µM
GI50 (SF-268 CNS): 3.05 µM
TGI (SF-268 CNS): 48.3 µM
GI50 (DU-145 prostate): 3.02 µM
TGI (DU-145 prostate): > 100 µM
GI50 (COLO 205 colon): 1.89 µM
TGI (COLO 205 colon): 8.15 µM
GI50 (OVCAR-5 ovarian): 4.59 µM
TGI (OVCAR-5 ovarian): > 100 µM
GI50 (M14 melanoma): 2.54 µM
TGI (M14 melanoma): 10.2 µM
GI50 (HL-60(TB) leukemia): 2.64 µM
TGI (HL-60(TB) leukemia): 9.22 µM
GI50 (SK-MEL-5 melanoma): 1.06 µM
TGI (SK-MEL-5 melanoma): 2.28 µM
GI50 (MOLT-4 leukemia): 1.9 µM
TGI (MOLT-4 leukemia): 7.67 µM
GI50 (SN12C renal): 2.74 µM
TGI (SN12C renal): > 100 µM
GI50 (PC-3 prostate): 1.74 µM
TGI (PC-3 prostate): 6.75 µM
GI50 (UO-31 renal): 1.85 µM
TGI (UO-31 renal): 5.17 µM
